Square brackets hold non-standard residues; d marks the D form. Peptide text beside a SMILES is read from it. * marks the point of attachment. 1Nal = N[C@@H](Cc1cccc2ccccc12)C(=O)O; Npys = O=[N+]([O-])c1cccnc1S*; Leu(ol) = CC(C)C[C@H](N)CO; Cbz = O=C(OCc1ccccc1)*; Mpa = O=C(O)CCS
Target: T1, human renin (Homo sapiens, UniProt P00797)
T1 sequence (P00797 67-406): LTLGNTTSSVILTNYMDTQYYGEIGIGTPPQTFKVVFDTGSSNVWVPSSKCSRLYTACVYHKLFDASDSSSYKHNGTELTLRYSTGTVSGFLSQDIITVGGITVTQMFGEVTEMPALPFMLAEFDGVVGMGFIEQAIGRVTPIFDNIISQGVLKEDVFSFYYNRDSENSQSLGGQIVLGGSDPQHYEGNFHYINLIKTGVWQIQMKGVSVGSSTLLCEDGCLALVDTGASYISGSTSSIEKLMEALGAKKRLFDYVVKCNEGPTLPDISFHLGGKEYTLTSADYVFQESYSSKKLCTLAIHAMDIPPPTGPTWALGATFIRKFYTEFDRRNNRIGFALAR
Assay: Inhibition of renin activity (human renin with sheep angiotensinogen, assay of angiotensin I)
Assay type: biochemical
Conditions: test compound 5 × 10^-5 mole/liter, phosphate buffer pH 7.3, 10 minutes at 37° C., mean of 3 or 4 experiments
Experimental: The ability of various compounds of the invention to inhibit the activity of renin was determined according to the following method.
Specifically, each test compound was dissolved in 60% v/v aqueous ethanol. Human renin activity in the presence and absence of each compound was measured using sheep angiotensinogen. The total volume of 1 ml of assay mixture contained 0.1 mole/liter phosphate buffer (pH 7.3), human renin (equivalent to 0.5 ng angiotensin I per ml per minute), sheep angiotensinogen (equivalent to 200 ng angiotensin I), the indicated concentration of the test compound, 6% ethanol and angiotensinase inhibitors (10 mmole/liter sodium ethylenediaminetetraacetate and 3.4 mmole/liter 8-hydroxyquinoline). The mixture was allowed to react for 10 minutes at 37° C., and then the reaction was stopped by placing the reaction tube in a boiling water bath for 5 minutes. The mixture was then centrifuged and the supernatant (0.05-0.1 ml) was used to assay remaining angiotensin I.
An identical experiment was carried out, as a control, except that the test compound was omitted. From the values obtained were calculated the % inhibition of renin activity achieved by each test compound. The results are shown in the following Table, in which the compounds of the invention are identified by the numbers assigned to them in the foregoing list. The values given are the mean of 3 or 4 experiments.

Row | % Inhibition | SMILES
1 | 70% | CC(C)C[C@@H](C=O)NC(=O)[C@H](Cc1c[nH]cn1)NC(=O)[C@H](Cc1ccccc1)NC(=O)CCSSc1ncccc1[N+](=O)[O-] [Compound 2, N-[3-(3-nitro-2-pyridyldithio)propionyl]-L-phenylalanyl-L-histidyl-L-leucinal] ([Mpa](Npys)FHL-aldehyde)
2 | 70% | CC(C)C[C@@H](CO)NC(=O)[C@H](Cc1c[nH]cn1)NC(=O)[C@H](Cc1ccccc1)NC(=O)CCSSc1ncccc1[N+](=O)[O-] [Compound 11, N-[3-(3-nitro-2-pyridyldithio)propionyl]-L-phenylalanyl-L-histidyl-L-leucinol] ([Mpa](Npys)FH[Leu(ol)])
3 | 58% | CC(C)C[C@@H](CO)NC(=O)[C@H](Cc1c[nH]cn1)NC(=O)[C@H](Cc1ccccc1)NC(=O)OCc1ccccc1 [Compound 10, N-benzyloxycarbonyl-L-phenylalanyl-L-histidyl-L-leucinol] (Cbz-Phe-His-[Leu(ol)])

More lines, now with the values behind:

Row | SMILES | % Inhibition
4 | CC(C)C[C@@H](C=O)NC(=O)[C@H](Cc1c[nH]cn1)NC(=O)[C@H](Cc1cccc2ccccc12)NC(=O)OCc1ccccc1 [Compound 3, N-benzyloxycarbonyl-3-(1-naphthyl)-L-alanyl-L-histidyl-L-leucinal] (Cbz-[1Nal]-His-Leu-aldehyde) | 54%
5 | CC(C)C[C@@H](C=O)NC(=O)[C@H](Cc1c[nH]cn1)NC(=O)[C@H](Cc1ccccc1)NC(=O)CCCc1ccccc1 [Compound 1, N-(4-phenylbutyryl)-L-phenylalanyl-L-histidyl-L-leucinal] | 53%
6 | CC(C)C[C@@H](CO)NC(=O)[C@H](Cc1c[nH]cn1)NC(=O)[C@H](Cc1cccc2ccccc12)NC(=O)OCc1ccccc1 [Compound 14, N-benzyloxycarbonyl-3-(1-naphthyl)-L-alanyl-L-histidyl-L-leucinol] (Cbz-[1Nal]-His-[Leu(ol)]) | 71%
